Data on two sequences can be found in PMC8096218, “Global RNA profiles show target selectivity and physiological effects of peptide-delivered antisense antibiotics” (Nucleic Acids Research, 2021).

Where two headings read alike, the source gives them in different places. A value given as a limit tells only on which side of the number the result lay.

In assay [1] the test system is wild-type (wt) Salmonella enterica serovar Typhimurium strain SL1344. Particulars: for MIC: non-cation-adjusted MHB, 37°C, 24 h; for MIC in μM, SL1344 wt: Table 3, three biological replicates. The procedure: (§1) MIC values were determined by broth microdilution according to standard protocols with a few modifications ([26]). An overnight bacterial cell culture, supplemented with the appropriate antibiotic when needed, was diluted 1:100 in fresh MHB and grown to OD600 0.5. The obtained culture was diluted to ∼10^5 cfu/ml or 10^6 cfu/ml, as indicated, in non-cation-adjusted MHB. Subsequently, 190 μl bacterial solution was dispensed into a 96-well plate (Thermo Fisher Scientific) along with 10 μl of a 20x PPNA, PNA or peptide working solution. Growth was monitored by measuring the OD at 600 nm every 20 min in a Synergy H1 plate reader (Biotek) with continuous double-orbital shaking (237 cpm) at 37°C for 24 h.

In assay [2] the test system is wild-type Salmonella enterica serovar Typhimurium strain LT2. Kind of assay: MIC determination by broth microdilution. It counts as cell-based. Particulars: Table 3; ∼10^5 cfu/ml; three biological replicates. The method, then:
as §1
(§2) Fig. S5. Growth k inetics for MIC determ ination of 10^5 cfu/m l Salmonella wt (LT 2) and its isogenic
(§3) Pho PC m utant in the presen ce of var ying co ncentra tio n s of the in dicat ed co njugat e s. ( A) KFF-acpP,
(§4) KFF-acpP-scram bled (scr) or KFF peptide in s erial dilutions from 10 µM to 0.3 µM. ( B) RXR- acpP,
(§5) RXR- acpP-scram bled (scr) or RXR peptide in serial dilutions from 10 µM to 0.3 µ M. ( C) T at-acpP,
(§6) T at-acpP-scram bled (scr) or T at peptide in serial dilutions from 20 µM to 0.6 µM. Data represent
(§7) the average of three biological replicates, error bars indicate standard error of the m ean (SEM).
(§8) (1 picture or pasted object on this page, not shown here)
On the technique in general: Broth dilution looks for growth in wells or tubes with falling amounts of substance.

The next assay relates to SL1344 ΔphoP. Kind of assay: MIC determination by broth microdilution. The class given is cell-based, Salmonella enterica serovar Typhimurium. As to conditions: Table 3; ∼10^5 cfu/ml; three biological replicates. The method, then: as §1
Fig. S4. Growth kinetics for MIC determ ination of 10^5 cfu/m l Salmonella wt (SL1344) and its isogenic ∆phoP m utant in the pres ence of var ying concentrations of the indicated conjugates. ( A) KFF-acpP, KFF-acpP-scram bled (scr) or KFF peptide in serial dilutions from 10 µM to 0.3 µM. ( B) RXR- acpP, RXR-acpP-scram bled (scr) or RXR peptide in seria l d ilutions f rom 10 µM to 0. 3 µM. ( C) T at-acpP, T at-acpP-scrambled (scr) or T at peptide in serial dilutions from 20 µM to 0.6 µM. D ata represent the average of three biological replicates, error bars indicate standard er ror of the m ean […]
as §8

A further assay deals with LT2 PhoP^C. Kind of assay: MIC determination by broth microdilution. The class given is cell-based, Salmonella enterica serovar Typhimurium. As to conditions: Table 3; ∼10^5 cfu/ml; three biological replicates. The method, then:
as §1, §2, §3, §4, §5, §6, §7, §8

For assay [3], the system named is Salmonella gene expression. Kind of assay: RNA-seq transcriptomic response. It counts as cell-based, Salmonella enterica serovar Typhimurium. Particulars: 15 min. The procedure: Bacterial overnight cultures were diluted 1:100 in fresh MHB and grown to OD600 0.5. The obtained cultures were diluted to ∼10^6 cfu/ml in non-cation-adjusted MHB. Afterward, the bacterial solution was transferred into low-binding 5 ml tubes (LABsolute) along with the 20× PNA, peptide or PPNA solution. The final concentrations were 5 μM for KFF- and RXR-PNAs, and 10 μM for Tat-PNAs. Equimolar concentrations were used for the respective peptide control conditions. As a negative control, cells were treated with the respective volume of sterile nuclease-free water, which was used as solvent for the test compounds.
A time kinetic was performed for subsequent northern blot analysis (5, 10, 15 min), in which the reaction was stopped at the indicated time points by using RNAprotect Bacteria (Qiagen). For RNA-seq analyses, adding RNAprotect Bacteria at 15 min post treatment stopped the reactions with the indicated PPNA constructs or the respective peptide. After vortexing for 5 s, the samples were incubated at room temperature for 10 min, followed by cell pelleting at 4°C and 21 100 ×g for 20 min. Pellets were directly used for RNA isolation or stored at –20°C (<2 days) until further processing. RNA was purified from bacterial pellets using isolation protocol #3, as described above (0.5 mg/ml lysozyme, miRNeasy).
DNase treatment, cDNA library preparation and sequencing was conducted at Vertis (Munich, Germany). The RNA samples were first fragmented using ultrasound (4 pulses of 30 s each at 4°C). Then, an oligonucleotide adapter was ligated to the 3′ ends of the RNA molecules. First-strand cDNA synthesis was performed using M-MLV reverse transcriptase and the 3′ adapter as primer. The first-strand cDNA was purified and the 5′ Illumina TruSeq sequencing adapter was ligated to the 3′ end of the antisense cDNA. The resulting cDNA was PCR-amplified to about 10–20 ng/μl using a high fidelity DNA polymerase. The cDNA was purified using the Agencourt AMPure XP kit (Beckman Coulter Genomics) and was analyzed by capillary electrophoresis. For Illumina NextSeq sequencing, the samples were pooled in approximately equimolar amounts. The cDNA pool was sequenced on an Illumina NextSeq 500 system using 75 bp read length.
Reads from the RNA-Seq experiments were trimmed, filtered and mapped against the S. enterica subsp. enterica serovar Typhimurium SL1344 reference genome and the three plasmids pSLT_SL1344, pCol1B9_SL1344 (other name is p2), and pRSF1010_SL1344 ([19]). BBDuk was applied to trim bases with a Phred quality score of <10, and adapters were removed simultaneously. Reads were then mapped against the reference genome using BBMap (v38.84) and then assigned genomic features, including both coding sequences and annotated sRNAs ([19],[29]) using the featureCounts method of the Subread (2.0.1) package.
All downstream analysis was performed using packages from the R/Bioconductor project. The raw read counts were imported and analyzed with edgeR (v3.30.0). Each set of PNA-peptide conjugate experiments (i.e. experiments with KFF, RXR and Tat peptide) was analyzed simultaneously. Genes with less than 14.6 counts per million (CPM) in at least three libraries were filtered. This cutoff value was calculated using 10/L, where L is the library size of the smallest sample (minimum library size) in millions.
Raw read counts were normalized by trimmed mean of M values (TMM) normalization. Differential expression analysis was conducted using edgeR ([31]). Estimation of quasi-likelihood (QL) dispersions was then run with the […] function. Then contrasts between all samples versus the water controls were created as input for the glmQLTest function.
Genes with an absolute fold change >2 and an adjusted P-value (Benjamini–Hochberg, ([32])) <0.001 were considered differentially expressed.

Where [4] appears, read: Table 1, ∼10^5 cfu/ml, lowest concentration with OD600 < 0.1.
The mark [5] stands for this setting: Table 2, ∼10^6 cfu/ml, performed three times.
Setting [6] is: edgeR, versus water, 5 μM RXR-constructs, 10 μM Tat-constructs, triplicates, listed as PNATATscr.
The mark [7] stands for this setting: edgeR, versus water, 10 μM, triplicates.
Where [8] appears, read: edgeR, versus water, 5 μM KFF-/RXR-constructs, 10 μM Tat-constructs, triplicates, listed as PNAKFFscr.
Where [9] appears, read: edgeR, versus water, 5 μM, triplicates.

For “GRKKKRRQRRRYK [Tat-acpP-scr, Tat peptide conjugated to scrambled control PNA]”, the MIC (in general, the lowest concentration that inhibits growth of the organism) in assay [1] (setting [4]) was above 20 µM. Besides, the “MIC” value in assay [1] (setting [5]) is above 40 µM. Also, the “MIC in μM, SL1344 wt” value in assay [1] (∼10^5 cfu/ml) was above 20 µM. For the same sequence, in assay [2], the “MIC in μM, LT2 wt” value is above 20 µM. Further, the “MIC in μM, SL1344 ΔphoP” value in the assay with SL1344 ΔphoP is 20 µM. For the same sequence, the “MIC in μM, LT2 PhoP^C” value in the assay with LT2 PhoP^C is above 20 µM. Also, the “number of differentially expressed sRNAs, apart from AmgR upregulation” value in assay [3] (RNA-seq, 10 μM, listed as Tat-acpP-scrambled) is 13. For the same sequence, in assay [3] (setting [6]), the “logFC SL1344_0066A” value came to 4.787 and the “logFC SL1344_2742” value is recorded as 4.052. In addition, in assay [3] (setting [7]), the “logFC SL1344_1472” value came out at 3.687 and the “logFC ccmE2” value was 4.962. Further, the “logFC recJ” value in assay [3] (edgeR, versus water, 10 μM, triplicates, listed as PNATATscr) is reported as 2.253.
In the case of KFFKFFKFFK [KFF-acpP-scr], the “MIC” value in assay [1] (setting [4]) was above 10 µM. Besides, in assay [1] (setting [5]), the minimal inhibitory concentration (MIC) is above 10 µM. Moreover, in assay [1] (∼10^5 cfu/ml), the “MIC in μM, SL1344 wt” value is above 10 µM. Besides, in assay [2], the “MIC in μM, LT2 wt” value was above 10 µM. The “MIC in μM, SL1344 ΔphoP” value in the assay with SL1344 ΔphoP is at least 10 µM. For the same sequence, in the assay on LT2 PhoP^C, the “MIC in μM, LT2 PhoP^C” value was above 10 µM. For the same sequence, in assay [3] (absolute fold change >2 and FDR-adjusted P-value <0.001 versus water, 5 μM KFF-/RXR-constructs, 10 μM Tat-constructs), the “number of differentially expressed genes” value was 10. Moreover, the “upregulation of AmgR transcript levels” value in assay [3] (RNA-seq, 5 μM, listed as KFF-acpP-scrambled) is around 2 fold. Besides, in assay [3] (setting [8]), the “logFC mig-14” value is on record as 1.6196 and the “logFC virK” value is on record as 2.3333. In assay [3] (setting [9]), the “logFC SL1344_1602” value is 1.058, the logFC cdh-a was 0.9654 and the “logFC yfbE” value came out at 0.9577.
